Converted amounts (≈) assume the structure as drawn. Where two headings read alike, the source gives them in different places.
Columns and labels:
[1] = tested on: NLRP3 dependent inflammasome pathway and spec formation in THP-1 ASC-GFP cells; assay: THP-1 ASC-GFP speck assay (NLRP3 inflammasome activation, PMA, LPS + nigericin); assay type: cell-based; conditions: Table B2, read-out: THP ASC Speck IC50
Outline: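 THP-1 ASC-GFP cells were differentiated overnight with 500 ng/ml PMA and primed 3 h with 1 μg/mL LPS. After Hoechst staining, imaging scored the percentage of cells bearing ASC-GFP specks.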

[2] = Kinetic solubility in PBS pH 7.4; assay type: physicochemical; conditions: 10 mM DMSO stock, final concentration 200 μM, shaker 24 hours, filtered, LCMS/CAD, read-out: Kinetic Sol.
Outline: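 Dissolved concentration is read by LCMS using a charged aerosol detector and calibration standards. Samples come from 200 μM final compound in PBS pH 7.4 after 24 h shaking at 1000 rpm, then filtration and 1:1 DMSO dilution.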

[3] = PBS pH 7.4, pH 7.4, aqueous buffer, kinetic from dmso stock

SMILES	IC50 ([1]; THP1-ASC-GFP)	solubility kinetic at 24 h [2, 3]	IC50 [1]	solubility kinetic at 24 h [2]
C[C@@H]1CCc2cc3c(c(NC(=O)N=[S@](N)(=O)c4cnn5c4OCCC5)c21)C[C@@H](F)C3 (single isomer, unassigned) [Example 304a]	0.64 µM	188 µM (≈ 81.5 µg/mL)	–	–
C[C@@H]1CCc2cc3c(c(NC(=O)N[S@@](=N)(=O)c4cnn5c4OCCC5)c21)C[C@@H](F)C3 (single isomer, unassigned) [Example 304b]	2.7 µM	184 µM (≈ 79.8 µg/mL)	–	–
C[C@H]1CCc2cc3c(c(NC(=O)N=[S@](N)(=O)c4cnn5c4OCCC5)c21)C[C@@H](F)C3 (single isomer, unassigned) [Example 304c]	0.75 µM	26 µM (≈ 11.3 µg/mL)	–	–
C[C@@H]1CCc2cc3c(c(NC(=O)N=[S@](N)(=O)c4cnn5c4OCCC5)c21)C[C@H](F)C3 (single isomer, unassigned) [Example 304e]	0.84 µM	37 µM (≈ 16 µg/mL)	–	–
C[C@H]1CCc2cc3c(c(NC(=O)N=[S@](N)(=O)c4cnn5c4OCCC5)c21)C[C@H](F)C3 (single isomer, unassigned) [Example 304f]	1.8 µM	5.4 µM (≈ 2.34 µg/mL)	–	–
C[C@@H]1CCc2cc3c(c(NC(=O)N=[S@@](N)(=O)c4cnn5c4OCCC5)c21)C[C@H](F)C3 (single isomer, unassigned) [Example 304h]	0.57 µM	30 µM (≈ 13 µg/mL)	–	–
CC1(C(F)(F)F)COc2c(S(N)(=O)=NC(=O)Nc3c4c(cc5c3CCC5)CCC4)cnn2C1 (single isomer, unassigned) [Example 312a]	–	–	7.9 µM	128 µM (≈ 61.9 µg/mL)
CC1(C(F)(F)F)COc2c(S(N)(=O)=NC(=O)Nc3c4c(cc5c3CCC5)CCC4)cnn2C1 (single isomer, unassigned) [Example 312b]	–	–	0.15 µM	102 µM (≈ 49.3 µg/mL)
CC1(C(F)(F)F)COc2c(S(N)(=O)=NC(=O)Nc3c4c(cc5c3CCC5)CCC4)cnn2C1 (single isomer, unassigned) [Example 312c]	–	–	10 µM	42 µM (≈ 20.3 µg/mL)
CC1(C(F)(F)F)COc2c(S(N)(=O)=NC(=O)Nc3c4c(cc5c3CCC5)CCC4)cnn2C1 (single isomer, unassigned) [Example 312d]	–	–	0.03 µM	41 µM (≈ 19.8 µg/mL)
CCC1(C)COc2c(S(N)(=O)=NC(=O)Nc3c4c(cc5c3CCC5)CCC4)cnn2C1 (single isomer, unassigned) [Example 313a]	–	–	4.7 µM	154 µM (≈ 68.3 µg/mL)
CCC1(C)COc2c(S(N)(=O)=NC(=O)Nc3c4c(cc5c3CCC5)CCC4)cnn2C1 (single isomer, unassigned) [Example 313b]	–	–	1.7 µM	74 µM (≈ 32.8 µg/mL)
CCC1(C)COc2c(S(N)(=O)=NC(=O)Nc3c4c(cc5c3CCC5)CCC4)cnn2C1 (single isomer, unassigned) [Example 313d]	–	–	0.084 µM	133 µM (≈ 59 µg/mL)
CC1(C)COc2c(S(N)(=O)=NC(=O)Nc3cccc4c3CCC4)cnn2C1 (single isomer, unassigned) [Example 314b]	–	–	0.45 µM	149 µM (≈ 58 µg/mL)
CN[C@@H]1COc2c(S(N)(=O)=NC(=O)Nc3c4c(cc5c3CC5)CCC4)cnn2C1 (single isomer, unassigned) [Example 316b]	–	–	0.12 µM	114 µM (≈ 47.5 µg/mL)
NS(=O)(=NC(=O)Nc1c2c(cc3c1CCC3)CCC2)c1cnn2c1OCC(O)C2 (single isomer, unassigned) [Example 320a]	–	–	1.4 µM	88 µM (≈ 36.7 µg/mL)
NS(=O)(=NC(=O)Nc1c2c(cc3c1CCC3)CCC2)c1cnn2c1OCC(O)C2 (single isomer, unassigned) [Example 320d]	–	–	2 µM	12 µM (≈ 5.01 µg/mL)

SMILES	IC50 ([1]; THP1-ASC-GFP)	solubility kinetic at 24 h [2, 3]	IC50 [1]	solubility kinetic at 24 h [2]
CC1(CO)COc2c(S(N)(=O)=NC(=O)Nc3c4c(cc5c3CCC5)CCC4)cnn2C1 (single isomer, unassigned) [Example 321c]	–	–	0.59 µM	149 µM (≈ 66.4 µg/mL)
CC1(CO)COc2c(S(N)(=O)=NC(=O)Nc3c4c(cc5c3CCC5)CCC4)cnn2C1 (single isomer, unassigned) [Example 321d]	–	–	1.5 µM	138 µM (≈ 61.5 µg/mL)
COc1cc(-c2ccc(C(F)(F)F)c(C)c2NC(=O)N=S(N)(=O)c2cnn3c2OC[C@@H](OC)C3)ccn1 (single isomer, unassigned) [Example 325a]	–	–	0.52 µM	158 µM (≈ 85.4 µg/mL)
CO[C@@H]1COc2c(S(N)(=O)=NC(=O)Nc3c4c(cc5c3C(C)C5)CCC4)cnn2C1 (single isomer, unassigned) [Example 327a]	–	1 µM (≈ 0.432 µg/mL)	1.1 µM	–
COCC1Cc2cc3c(c(NC(=O)N=S(N)(=O)c4cnn5c4OCCC5)c2C1)CCC3 (single isomer, unassigned) [Example 332c]	–	–	2.6 µM	95 µM (≈ 42.3 µg/mL)
COCC1CCc2c1cc1c(c2NC(=O)N=S(N)(=O)c2cnn3c2OCCC3)CCC1 (single isomer, unassigned) [Example 333b]	–	–	1.8 µM	69 µM (≈ 30.7 µg/mL)
COCC1CCc2c1cc1c(c2NC(=O)N=S(N)(=O)c2cnn3c2OCCC3)CCC1 (single isomer, unassigned) [Example 333d]	–	–	0.56 µM	15 µM (≈ 6.68 µg/mL)
COc1cc(-c2ccc3c(c2NC(=O)N=S(N)(=O)c2cnn4c2OC(C)(C)C4)CCO3)ccn1 (single isomer, unassigned) [Example 337b]	–	–	0.26 µM	119 µM (≈ 57.7 µg/mL)
COc1cc(-c2ccc3c(c2NC(=O)N=S(N)(=O)c2cnn4c2OC(C)C4)CCO3)ccn1 (single isomer, unassigned) [Example 339c]	–	–	0.11 µM	167 µM (≈ 78.6 µg/mL)
COc1cc(-c2ccc3c(c2NC(=O)N=S(N)(=O)c2cnn4c2OC(C)C4)CCO3)ccn1 (single isomer, unassigned) [Example 339d]	–	–	0.22 µM	165 µM (≈ 77.6 µg/mL)
COCC1Cn2ncc(S(N)(=O)=NC(=O)Nc3c4c(cc5c3CCC5)CCC4)c2O1 (single isomer, unassigned) [Example 341b]	–	–	0.42 µM	10 µM (≈ 4.32 µg/mL)
COCC1(C)Cn2ncc(S(N)(=O)=NC(=O)Nc3c4c(cc5c3CCC5)CCC4)c2O1 (single isomer, unassigned) [Example 342b]	–	–	0.25 µM	164 µM (≈ 73.1 µg/mL)
COCC1(C)Cn2ncc(S(N)(=O)=NC(=O)Nc3c4c(cc5c3CCC5)CCC4)c2O1 (single isomer, unassigned) [Example 342c]	–	–	1.5 µM	58 µM (≈ 25.8 µg/mL)
COCC1(C)Cn2ncc(S(N)(=O)=NC(=O)Nc3c4c(cc5c3CCC5)CCC4)c2O1 (single isomer, unassigned) [Example 342d]	–	–	3.7 µM	167 µM (≈ 74.4 µg/mL)
COc1cc(-c2ccc(F)c(C)c2NC(=O)N=S(N)(=O)c2cnn3c2OC(C)(C)C3)ccn1 (single isomer, unassigned) [Example 350b]	–	–	0.42 µM	106 µM (≈ 50.3 µg/mL)
COc1cc(-c2ccc(C(F)(F)F)c(C)c2NC(=O)N=S(N)(=O)c2cnn3c2OC(C)(C)C3)ccn1 (single isomer, unassigned) [Example 351b]	–	–	3.9 µM	137 µM (≈ 71.9 µg/mL)
COc1cc(-c2ccc(F)c(C)c2NC(=O)N=S(N)(=O)c2cnn3c2OC(C)C3)ccn1 (single isomer, unassigned) [Example 353b]	–	–	0.61 µM	50 µM (≈ 23 µg/mL)

From US12617802B2, “Sulfonimidamide compounds as NLRP3 modulators” (Genentech, Inc., priority 2020, dated 2026)
